Measurements as given in paper PMC10028261, “Structural and ligand binding analysis of the pet allergens Can f 1 and Fel d 7” (Frontiers in Allergy, 2023).

Key:
Format in all cases: binding
Can f 1 [1] = molecular target: T1, Can f 1 (Canis lupus, UniProt O18873); test: ANS displacement assay; details: 2 uM ANS, 0.2 mg/ml protein, RT, 1 h; fatty acid 10 uM (Methods) or 1 uM (Figure 4 legend)
T1 construct: wild-type (C118S gene reverted to Cys118), signal peptide absent, borders aa 27-171 for the C118S crystal construct; 6His-GST tag cut with TEV; E. coli BL21(DE3)
T1 sequence (O18873 27-171): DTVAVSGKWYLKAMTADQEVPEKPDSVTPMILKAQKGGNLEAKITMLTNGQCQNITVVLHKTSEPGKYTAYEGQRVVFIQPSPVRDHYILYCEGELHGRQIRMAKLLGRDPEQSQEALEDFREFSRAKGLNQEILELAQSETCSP

Fel d 7 [2] = molecular target: T2, Fel d 7 (Felis catus, UniProt E5D2Z5); test: ANS displacement assay; details: 2 uM ANS, 0.2 mg/ml protein, RT, 1 h; fatty acid 10 uM (Methods) or 1 uM (Figure 4 legend)
T2 construct: wild-type, signal peptide absent, aa 27-170 for the crystal construct; GST tag cut with TEV; E. coli BL21(DE3)
T2 sequence (E5D2Z5 27-170): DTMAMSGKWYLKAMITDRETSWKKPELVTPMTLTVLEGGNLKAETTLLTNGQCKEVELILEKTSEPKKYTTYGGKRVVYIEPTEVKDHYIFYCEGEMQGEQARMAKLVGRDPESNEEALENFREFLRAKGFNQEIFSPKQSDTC

Can f 1 [3] = molecular target: T1, Can f 1; test: […]-methyl HSQC NMR stoichiometry; details: labelled compound (methyl-13C-oleate); annealed at 80°C, excess lipid removed, PBS; cholate extraction
Fel d 7 [4] = molecular target: T2, Fel d 7; test: […]-methyl HSQC NMR stoichiometry; details: labelled compound (methyl-13C-oleate); annealed at 80°C, excess lipid removed, PBS; cholate extraction

% fluorescence reduction (Can f 1 [1]) [%] | % fluorescence reduction (Fel d 7 [2]) [%] | stoichiometry (oleate:protein) (Can f 1 [3]) | stoichiometry (oleate:protein) (Fel d 7 [4]) | SMILES
> 50 | > 50 |  |  | CC/C=C\C/C=C\C/C=C\CCCCCCCC(=O)N[C@@H](Cc1ccc(O)cc1)C(=O)O [A2, N-(α-Linolenoyl) tyrosine]
> 50 | > 50 |  |  | CCCCC/C=C\C/C=C\CCCCCCCC(=O)NCC(=O)O [D10, Linoleoyl glycine]
> 50 | > 50 |  |  | CCCCCCCC/C=C\CCCCCCCC(=O)N[C@@H](CO)C(=O)O [A4, N-Oleoyl-L-serine]
 |  | 2:1 | 2:1 | CCCCCCCC/C=C\CCCCCCCC(=O)O [oleic acid]
